By IC50 is commonly meant the concentration needed to halve the response being measured. What is called inhibition is the change of the read-out against control, counted positive when it falls.

Data set [1] has as its system BV-2. Briefly: Inhibition of lipopolysaccharide-induced nitric oxide production in mouse BV2 cells assessed as reduction in nitrite level by Griess reaction based ELISA. The data set is classed as functional, cell-based. In general terms: The Griess reaction detects nitrite, a stable product of nitric oxide.
For data set [2], the system named is BV-2. As to the kind of experiment: Inhibition of lipopolysaccharide-induced IL6 production in mouse BV2 cells pre-incubated for 1 hr before LPS stimulation for 24 hrs by ELISA. The data set is classed as functional, cell-based. In general terms: ELISA stands for enzyme-linked immunosorbent assay.
In data set [3] the test system is BV-2. As to the kind of experiment: Inhibition of lipopolysaccharide-induced IL-1beta production in mouse BV2 cells pre-incubated for 1 hr before LPS stimulation for 24 hrs by ELISA. The data set is classed as functional, cell-based.
Data set [4] relates to BV-2. As to the kind of experiment: Inhibition of lipopolysaccharide-induced COX2 protein expression in mouse BV2 cells pre-incubated for 3 hrs before LPS stimulation by Western blot method. It counts as functional, cell-based.
In data set [5] the test system is Microglia. As to the kind of experiment: Inhibition of lipopolysaccharide-induced PGE2 production in Sprague-Dawley rat primary microglia cells pre-incubated for 1 hr before LPS stimulation for 24 hrs. It counts as functional, cell-based.
In data set [6] the test system is BV-2. As to the kind of experiment: Inhibition of lipopolysaccharide-induced iNOS protein expression in mouse BV2 cells pre-incubated for 3 hrs before LPS stimulation by Western blot method. It counts as functional, cell-based. In general terms: A western blot detects proteins with antibodies after separation by electrophoresis.
Data set [7] concerns Microglia. As to the kind of experiment: Inhibition of lipopolysaccharide-induced IL-1beta production in Sprague-Dawley rat primary microglia cells pre-incubated for 1 hr before LPS stimulation for 24 hrs by ELISA. It counts as functional, cell-based.
The test system of data set [8] is Microglia. As to the kind of experiment: Inhibition of lipopolysaccharide-induced TNFalpha production in Sprague-Dawley rat primary microglia cells pre-incubated for 1 hr before LPS stimulation for 24 hrs by ELISA. It counts as functional, cell-based.
The test system of data set [9] is BV-2. Briefly: Cytotoxicity in mouse BV2 cells by MTT assay. It counts as cell-based.
The subject of data set [10] is Microglia. As to the kind of experiment: Inhibition of lipopolysaccharide-induced COX2 protein expression in Sprague-Dawley rat primary microglia cells pre-incubated for 3 hrs before LPS stimulation by Western blot method. The data set is classed as functional, cell-based.
In data set [11] the test system is BV-2. As to the kind of experiment: Inhibition of lipopolysaccharide-induced PGE2 production in mouse BV2 cells pre-incubated for 1 hr before LPS stimulation for 24 hrs. It counts as functional, cell-based.
For data set [12], the system named is Microglia. Briefly: Inhibition of lipopolysaccharide-induced IL6 production in Sprague-Dawley rat primary microglia cells pre-incubated for 1 hr before LPS stimulation for 24 hrs by ELISA. It counts as functional, cell-based.
The subject of data set [13] is Microglia. Briefly: Inhibition of lipopolysaccharide-induced nitric oxide production in Sprague-Dawley rat primary microglia cells assessed as reduction in nitrite level by Griess reaction based ELISA. The data set is classed as functional, cell-based.
In data set [14] the test system is BV-2. Briefly: Inhibition of lipopolysaccharide-induced TNFalpha production in mouse BV2 cells pre-incubated for 1 hr before LPS stimulation for 24 hrs by ELISA. It counts as functional, cell-based.
Data set [15] has as its system Microglia. Briefly: Inhibition of lipopolysaccharide-induced iNOS protein expression in Sprague-Dawley rat primary microglia cells pre-incubated for 3 hrs before LPS stimulation by Western blot method. The data set is classed as functional, cell-based.
Data set [16] concerns BV-2. Briefly: Inhibition of lipopolysaccharide-induced nitric oxide production in mouse BV2 cells assessed as reduction in nitrite level at 60 uM by Griess reaction based ELISA. It counts as functional.

Take `C[C@@H]1CCC=C2C(=O)C=C[C@@H](O)[C@]21C`: the IC50 in the data set on BV-2 [1] was 3.48 µM; in the data set on BV-2 [2], 3.57 µM; with BV-2 [3], 2.04 µM; in the data set with Microglia [5], 5.33 µM; with Microglia [7], 5.84 µM; with Microglia [8] it was 3.18 µM. Moreover, the IC50 in the data set on BV-2 [11] was found to be 2.05 µM; with Microglia [12], 3.62 µM; in the data set with Microglia [13], 4.96 µM; in the data set on BV-2 [14], 2.11 µM. Moreover, the inhibition result in the data set on BV-2 [1], in the data set on BV-2 [4], with BV-2 [6], in the data set with Microglia [10] and in the data set on Microglia [15] was “Dose-dependent effect” in each case. The Activity result in the data set on BV-2 [9] is reported as “Non-Toxic”.
On to `C[C@@H]1C[C@@H](O)C=C2C(=O)C=C[C@@H](C(C)(C)O)[C@]21C`, for which, in the data set with BV-2 [1], the 50% inhibitory concentration (IC50) is 46.5 µM and the inhibition result was “Dose-dependent effect”. Moreover, the Activity entry in the data set on BV-2 [9] is “Non-Toxic”.
As to `C=C1COC(=O)[C@H]2[C@@H]1C[C@H](O)[C@@]2(C)O` [JATAMANIN A], in the data set with BV-2 [1], the IC50 came to 27.8 µM and the inhibition entry was “Dose-dependent effect”. Besides, in the data set on BV-2 [9], the Activity result is “Non-Toxic”.
With `CC(C)[C@]1(O)CC[C@@]2(C)[C@H](O)CC[C@](C)(O)[C@@H]2C1`, in the data set with BV-2 [1], the concentration for half-maximal inhibition (IC50) was greater than 60 µM. Also, in the data set with BV-2 [9], the Activity entry is reported as “Non-Toxic”. Moreover, the inhibition at 60 µM with BV-2 [16] came to 28.4%.
On to `C[C@@H]1C[C@H](O)C=C2C(=O)C=C[C@@H](O)[C@]21C` [NARCHINOL B], for which the IC50 stood at 2.43 µM in the data set with BV-2 [1]; 2.9 µM in the data set on BV-2 [2]; 1.73 µM in the data set on BV-2 [3]; 3.1 µM with Microglia [5]; 3.11 µM in the data set with Microglia [7]; 9.83 µM in the data set on Microglia [8]. Further, the IC50 worked out at 2.38 µM in the data set on BV-2 [11], 4 µM in the data set on Microglia [12], 4.17 µM in the data set with Microglia [13] and 1.7 µM in the data set with BV-2 [14]. Further, the inhibition entry in the data set on BV-2 [1], in the data set with BV-2 [4], in the data set with BV-2 [6], in the data set with Microglia [10] and in the data set with Microglia [15] was “Dose-dependent effect” each time. The Activity entry in the data set on BV-2 [9] was “Non-Toxic”.
On to `C[C@@H]1C[C@H](O)C=C2C(=O)C=C[C@@H](C(C)(C)O)[C@]21C`, for which, in the data set on BV-2 [1], the concentration for half-maximal inhibition (IC50) stood at 30.5 µM and the inhibition result is “Dose-dependent effect”. Moreover, in the data set with BV-2 [9], the Activity entry is on record as “Non-Toxic”.
Regarding `C=C1[C@@H]2O[C@@H](OC)[C@H]3[C@@H]1C[C@H](O)[C@]3(C)O2`, the IC50 in the data set on BV-2 [1] is greater than 60 µM. The Activity result in the data set on BV-2 [9] is given as “Non-Toxic”. The inhibition at 60 µM in the data set with BV-2 [16] was determined as 39.7%.
Turning to `CC(C)(O)C[C@@H]1CC[C@]2(C)[C@@H](O)CC[C@@](C)(O)[C@@H]12`, the inhibition result in the data set on BV-2 [1] is “Dose-dependent effect”. For the same compound, the Activity result in the data set on BV-2 [9] is recorded as “Non-Toxic”. In addition, the inhibition at 60 µM in the data set with BV-2 [16] worked out at 39%.
For the compound `CC(C)C1CC[C@@](C)(O)[C@@H]2CC[C@](C)(O)[C@H]2[C@@H]1O` (stereo partly drawn), the half-maximal inhibitory concentration (IC50) in the data set on BV-2 [1] is greater than 60 µM. Moreover, the Activity entry with BV-2 [9] is reported as “Non-Toxic”. Moreover, in the data set on BV-2 [16], the inhibition at 60 µM was determined as 34%.

The values are drawn from ChEMBL document CHEMBL4177732, “Anti-neuroinflammatory effects of sesquiterpenoids isolated from Nardostachys jatamansi” (Bioorg Med Chem Lett, 2018).
